Laboratory results published in US8178506B2, “Oligomeric compounds and compositions for use in modulation of small non-coding RNAs” (Regulus Therapeutics Inc., priority 2003, dated 2012).
In the oligonucleotide strings, read from the 5' end, every base follows the letter of its sugar. An asterisk marks phosphorothioate; unmarked linkages are phosphodiester. Other units and linkages are bracketed, terminal groups are in braces. A string of capitals states the bases alone. e = 2'-O-(2-methoxyethyl) (MOE); [5mC] = 5-methylcytosine; d = 2'-deoxy (DNA)

What was measured:
[1] = test system: HeLa cells; experiment: Cell cycle assay in HeLa cells; format: cell-based, human; details: HeLa cells; for % cells in cell cycle phase: G1 / % cells in cell cycle phase: G2/M / % cells in cell cycle phase: S / % cells in cell cycle phase: aneuploid / % cells in cell cycle phase: subG1: 48 hours after treatment, relative to untreated control (UTC=100)
[2] = test system: T47D cells; experiment: Cell cycle assay in T47D cells; format: cell-based, human; details: 150 nM, 48 hours, relative to untreated control
Experimental: (§1) BJ cells were routinely cultured in MEM high glucose with 2 mM L-glutamine and Earle's BSS adjusted to contain 1.5 g/L sodium bicarbonate and supplemented with 10% fetal bovine serum, 0.1 mM non-essential amino acids and 1.0 mM sodium pyruvate (all media and supplements from Invitrogen Life Technologies, Carlsbad, Calif.). B16-F10 cells were routinely cultured in DMEM high glucose (Invitrogen Life Technologies, Carlsbad, Calif.) supplemented with 10% fetal bovine serum (Invitrogen Life Technologies, Carlsbad, Calif.). T47D cells were cultured in DMEM High glucose media (Invitrogen Life Technologies, Carlsbad, Calif.) supplemented with 10% fetal bovine serum. […] Cells were plated on collagen-coated 24-well plates (Falcon-Primaria #3047, BD Biosciences, Bedford, Mass.) at approximately 50,000 cells per well and allowed to attach to wells overnight.
(§2) In further studies, additional cell lines were treated with oligomeric compounds targeted against miRNAs to assess the effects of each oligomeric compound on cell cycling. BJ, B16, T47D, and HeLa cells were cultured and transfected as described above. […] T47Dp53 cells are T47D cells that have been transfected with and selected for maintenance of a plasmid that expresses a wildtype copy of the p53 gene (for example, pCMV-p53; Clontech, Palo Alto, Calif.), using standard laboratory procedures. BJ cells were treated with 200 nM of each oligomeric compound, and T47D, T47Dp53, HeLa, and B16 cells were treated with 150 nM of each oligomeric compound. The human foreskin fibroblast BJ cell line represents a non-cancer cell line, while HeLa, T47D, T47Dp53 cells and the mouse melanoma cell line B16-F10 represent cancerous cell lines. For comparison, oligomeric compounds ISIS 183891 (SEQ ID NO: 847) and ISIS 285717 ([…]; herein incorporated as SEQ ID NO: 857), both targeting the kinesin-like 1/Eg5 mRNA, involved in cell cycling, were used as positive controls. The random-mer ISIS 29848 was used as a negative control. Additionally, the oligomeric compounds ISIS Number 25690 ([…]; herein incorporated as SEQ ID NO: 858) and ISIS Number 25691 ([…]; herein incorporated as SEQ ID NO: 859), targeted to nucleotides 3051-3070 and 3085-3104, respectively, of the mRNA encoding the Drosha RNase III (GenBank Accession NM_013235.2, incorporated herein as SEQ ID NO: 860) were also tested. ISIS Number 25690 and ISIS Number 25691 are 5-10-52′-MOE gapmer compounds, 20 nucleotides in length, with phosphorothioate internucleoside linkages throughout the oligomeric compound. All cytidine residues are 5-methylcytidines. Transfections were performed using the methods described herein. Cells were prepared for flow cytometry 48-hours after oligonucleotide treatment. Results of these studies are shown in Table 35, where data are expressed as percentage of cells in each phase relative to the untreated control cells in that phase.

[3] = test system: T47Dp53 cells; experiment: Cell cycle assay in T47Dp53 cells; format: cell-based, human; details: 150 nM, 48 hours, relative to untreated control
Experimental: as §2

[4] = test system: B16-F10 cells; experiment: Cell cycle assay in B16-F10 cells; format: cell-based, mouse; details: 150 nM, 48 hours, relative to untreated control
Experimental: as §1, §2

[5] = test system: BJ cells; experiment: Cell cycle assay in BJ cells; format: cell-based, human; details: 200 nM, 48 hours, relative to untreated control
Experimental: as §1, §2

[6] = test system: mir-15a pri-miRNA; experiment: mir-15a pri-miRNA expression in HepG2 cells (real-time RT-PCR); format: cell-based, human; details: HepG2 cells, 100 nM, real-time RT-PCR
Experimental: Using the real-time RT-PCR methods described in Example 19, the expression levels of the mir-15a pri-miRNA were compared in HepG2 cells treated with a nested series of chimeric gapmer oligomeric compounds, targeting and spanning the entire length of the mir-15a pri-miRNA; these compounds are shown in Table 45, below. […] All cytidine residues are 5-methylcytidines. Using the transfection methods described herein, HepG2 cells were treated with 100 nM of each of these gapmer oligomeric compounds. Total RNA was isolated from HepG2 cells by lysing cells in 1 mL TRIZOL™ (Invitrogen) using the manufacturer's recommended protocols. Real-time RT-PCR analysis was performed using a primer/probe set specific for the mir-15a pri-miRNA molecule to assess the effects of these compounds on expression of the mir-15a pri-miRNA molecule. ISIS 339317 ([…]; SEQ ID NO.: 885) was used as the forward primer, ISIS 339318 (TGGCCTGCACCTTTTCAAA; SEQ ID NO.: 886) was used as the reverse primer, and ISIS 339319 ([…]; SEQ ID NO.: 887) was used as the probe. Total RNA was quantified using RiboGreen™ RNA quantification reagent (Molecular Probes, Inc. Eugene, Oreg.), expression levels observed for each target are normalized to 5.8S rRNA, and values are expressed relative to the untreated control. Inhibition of expression of the mir15a pri-miRNA by these gapmer oligomeric compounds is expressed as a percentage of RNA levels in untreated control cells.

[7] = 150 nM, 48 hours, relative to untreated control
[8] = 150 nM oligomeric compound, 24 hours, relative to untreated control (UTC = 100)

Substance	% cells in cell cycle phase G1 [1, 7] [%]	% cells in cell cycle phase G2/M [1, 7] [%]	% cells in cell cycle phase S [1, 7] [%]	% cells in cell cycle phase aneuploid [1, 7] [%]	% cells in cell cycle phase subG1 [1, 7] [%]	% cells in cell cycle phase G1 [4] [%]	% cells in cell cycle phase G2/M [4] [%]	% cells in cell cycle phase S [4] [%]	% cells in cell cycle phase aneuploid [4] [%]	% cells in cell cycle phase subG1 [4] [%]	% cells in cell cycle phase G1 [5] [%]	% cells in cell cycle phase G2/M [5] [%]	% cells in cell cycle phase S [5] [%]	% cells in cell cycle phase aneuploid [5] [%]	% cells in cell cycle phase subG1 [5] [%]	Expression of mir-15a pri-miRNA (% UTC) [6] [% UTC]	further results
25691 (antisense eG*e[5mC]*e[5mC]*eA*eA*dG*dG*d[5mC]*dG*dT*dG*dA*d[5mC]*dA*dT*eG*eA*eT*eA*eT) [compound 25691]	53	113	141	203	881	116	99	83	105	316	94	125	116	209	183	–	% cells in cell cycle phase G1 [2]: 94%; % cells in cell cycle phase G2/M [2]: 104%; % cells in cell cycle phase S [2]: 104%; % cells in cell cycle phase aneuploid [2]: 203%; % cells in cell cycle phase subG1 [2]: 125%; % cells in cell cycle phase G1 [3]: 130%; % cells in cell cycle phase G2/M [3]: 93%; % cells in cell cycle phase S [3]: 66%; % cells in cell cycle phase aneuploid [3]: 95%; % cells in cell cycle phase subG1 [3]: 212%
328744 (antisense e[5mC]*eG*eG*eA*eT*d[5mC]*d[5mC]*dT*dG*dT*dT*dA*d[5mC]*d[5mC]*dT*e[5mC]*eA*e[5mC]*e[5mC]*eA) [compound 328744]	53	213	110	178	1057	108	110	87	115	153	94	127	111	158	125	–	% cells aneuploid [1, 8]: 111%; % cells in cell cycle phase G1 [1, 8]: 31%; % cells in cell cycle phase G2/M [1, 8]: 167%; % cells in cell cycle phase S [1, 8]: 108%; % cells in cell cycle phase subG1 [1, 8]: 229%; % cells in cell cycle phase: G1 ([1]; 150 nM oligomeric compound): 31%; % cells in cell cycle phase: G2/M ([1]; 150 nM oligomeric compound): 334%; % cells in cell cycle phase: S ([1]; 150 nM oligomeric compound): 78%; % cells in cell cycle phase: aneuploid ([1]; 150 nM oligomeric compound): 171%; % cells in cell cycle phase: subG1 ([1]; 150 nM oligomeric compound): 1774%; % cells in cell cycle phase G1 [2]: 90%; % cells in cell cycle phase G2/M [2]: 118%; % cells in cell cycle phase S [2]: 87%; % cells in cell cycle phase aneuploid [2]: 191%; % cells in cell cycle phase subG1 [2]: 85%; % cells in cell cycle phase G1 [3]: 130%; % cells in cell cycle phase G2/M [3]: 101%; % cells in cell cycle phase S [3]: 59%; % cells in cell cycle phase aneuploid [3]: 100%; % cells in cell cycle phase subG1 [3]: 90%
345395 (AAGGGATTCCTGGGAAAACTGGAC; sugars from the 5' end e5 d10 e9, all phosphorothioate, methylation of C not given here) [compound 345395]	108	95	96	139	87	106	115	87	150	147	100	104	97	115	132	–	% cells aneuploid [1, 8]: 77%; % cells in cell cycle phase G1 [1, 8]: 54%; % cells in cell cycle phase G2/M [1, 8]: 222%; % cells in cell cycle phase S [1, 8]: 82%; % cells in cell cycle phase subG1 [1, 8]: 247%; % cells in cell cycle phase: G1 ([1]; 150 nM oligomeric compound): 51%; % cells in cell cycle phase: G2/M ([1]; 150 nM oligomeric compound): 157%; % cells in cell cycle phase: S ([1]; 150 nM oligomeric compound): 192%; % cells in cell cycle phase: aneuploid ([1]; 150 nM oligomeric compound): 87%; % cells in cell cycle phase: subG1 ([1]; 150 nM oligomeric compound): 213%
347964 (eT*eA*eT*eA*eA*d[5mC]*dA*dT*dT*dG*dA*dT*dG*dT*dA*eA*eT*eA*eT*eG; antisense) [compound 347964]	–	–	–	–	–	–	–	–	–	–	–	–	–	–	–	13.7	–
347965 (eG*e[5mC]*eT*eA*e[5mC]*dT*dT*dT*dA*d[5mC]*dT*d[5mC]*d[5mC]*dA*dA*eG*eG*eT*eT*eT; antisense) [compound 347965]	–	–	–	–	–	–	–	–	–	–	–	–	–	–	–	86.0	–
347966 (eT*eG*e[5mC]*eT*eA*d[5mC]*dT*dT*dT*dA*d[5mC]*dT*d[5mC]*d[5mC]*dA*eA*eG*eG*eT*eT; antisense) [compound 347966]	–	–	–	–	–	–	–	–	–	–	–	–	–	–	–	39.2	–
347967 (eG*e[5mC]*eA*e[5mC]*e[5mC]*dT*dT*dT*dT*d[5mC]*dA*dA*dA*dA*dT*e[5mC]*e[5mC]*eA*e[5mC]*eA) [compound 347967]	–	–	–	–	–	–	–	–	–	–	–	–	–	–	–	152.3	–
